# Source: US12559474B2, “Triazine derivatives having virus replication inhibitory activity and pharmaceutical composition comprising the same” (priority 2021, dated 2026)
# Read-outs that look alike come from different tables or passages of the source.
# What was measured:
# SARS-CoV-2 = assay: microbe, parasite or virus in culture; type: cell-based; settings: Severe acute respiratory syndrome coronavirus 2, VeroE6/TMPRSS2, 72 h, 50% SARS-CoV-2 infected cell death inhibitory concentration, VeroE6/TMPRSS2 cells, 3 days culture
# SARS-CoV-2 3CL protease = SARS-CoV-2 3CL protease (Severe acute respiratory syndrome coronavirus 2, UniProt P0DTD1); assay: biochemical; settings: 50% SARS-CoV-2 3CL protease inhibitory concentration, read-out: IC50
SMILES,EC50 (SARS-CoV-2; class symbols) [nM],IC50 (SARS-CoV-2 3CL protease; given as class symbols) [nM],EC50 (SARS-CoV-2; CellTiter-Glo 2.0) [nM],IC50 (SARS-CoV-2 3CL protease; RapidFire MS) [nM]
Cn1cc2cc(Nc3nc(=O)n(Cc4ccc[nH]c4=O)c(=O)n3Cc3cc(F)c(F)c(F)c3)c(Cl)cc2n1 [Compound I-0436],< 1000,< 100,,
COc1cc(Cl)c(Nc2nc(=O)n(Cc3ccc[nH]c3=O)c(=O)n2Cc2cc(F)c(F)c(F)c2)c(Cl)c1 [Compound I-0437],1000 to 10000,< 100,,
Cc1nc2cc(Cl)c(Nc3nc(=O)n(Cc4ccc[nH]c4=O)c(=O)n3Cc3cc(F)c(F)c(F)c3)cc2n1CC(F)F [Compound I-0444],1000 to 10000,< 100,3940,5.1
CC(C)(O)Cn1cc2cc(Nc3nc(=O)n(Cc4ccc[nH]c4=O)c(=O)n3Cc3cc(F)c(F)c(F)c3)c(Cl)cc2n1 [Compound I-0447],1000 to 10000,< 100,,
O=c1[nH]cccc1Cn1c(=O)nc(Nc2cc3cn(CCCO)nc3cc2Cl)n(Cc2cc(F)c(F)c(F)c2)c1=O [Compound I-0450],1000 to 10000,< 100,,
O=C1CC=CC=C1Cn1c(=O)nc(Nc2cc3cn(C4CCOCC4)nc3cc2Cl)n(Cc2cc(F)c(F)c(F)c2)c1=O [Compound I-0451],1000 to 10000,< 100,,
O=c1[nH]cc(Cl)cc1Cn1c(=O)nc(Nc2cc3cn(CCCO)nc3cc2Cl)n(Cc2cc(F)c(F)c(F)c2)c1=O [Compound I-0454],1000 to 10000,< 100,,
CC(C)(O)Cn1cc2cc(Nc3nc(=O)n(Cc4cc(Cl)c[nH]c4=O)c(=O)n3Cc3cc(F)c(F)c(F)c3)c(Cl)cc2n1 [Compound I-0455],1000 to 10000,< 100,,
Cc1nc2cc(Cl)c(Nc3nc(=O)n(-c4cccc5ccccc45)c(=O)n3Cc3cc(F)c(F)c(F)c3)cc2n1C [Compound I-0456],1000 to 10000,< 100,,
O=c1[nH]cccc1Cn1c(=O)nc(Nc2cc3c(cc2Cl)nc2n3CCOC2)n(Cc2cc(F)c(F)c(F)c2)c1=O [Compound I-0457],,,5300,7.2
Cc1nc2cc(Cl)c(Nc3nc(=O)n(Cc4ccc[nH]c4=O)c(=O)n3Cc3cc(F)c(F)c(F)c3)cc2o1 [Compound I-0459],1000 to 10000,< 100,,
CNc1nc2ccc(Nc3nc(=O)n(Cc4ccc[nH]c4=O)c(=O)n3Cc3cc(F)c(F)c(F)c3)cc2s1 [Compound I-0460],1000 to 10000,< 100,,
Cc1nc2cc(Nc3nc(=O)n(Cc4ccc[nH]c4=O)c(=O)n3Cc3cc(F)c(F)c(F)c3)c(Cl)cc2o1 [Compound I-0461],1000 to 10000,< 100,,
COC(=O)COc1ccc(Nc2nc(=O)n(Cc3ccc[nH]c3=O)c(=O)n2Cc2cc(F)c(F)c(F)c2)c(Cl)c1 [Compound I-0462],1000 to 10000,< 100,,
CC(=O)Nc1nc2cc(Cl)c(Nc3nc(=O)n(Cc4ccc[nH]c4=O)c(=O)n3Cc3cc(F)c(F)c(F)c3)cc2s1 [Compound I-0465],1000 to 10000,< 100,3270,4.2
CC(C)(C)OC(=O)Nc1nc2cc(Cl)c(Nc3nc(=O)n(Cc4ccc[nH]c4=O)c(=O)n3Cc3cc(F)c(F)c(F)c3)cc2s1 [Compound I-0466],< 1000,< 100,,
CNc1nc2cc(Cl)c(Nc3nc(=O)n(Cc4ccc[nH]c4=O)c(=O)n3Cc3cc(F)c(F)c(F)c3)cc2s1 [Compound I-0467],1000 to 10000,< 100,,
CCNc1nc2cc(Cl)c(Nc3nc(=O)n(Cc4ccc[nH]c4=O)c(=O)n3Cc3cc(F)c(F)c(F)c3)cc2s1 [Compound I-0468],1000 to 10000,< 100,,
O=c1[nH]cccc1Cn1c(=O)nc(Nc2cc3cn(C4CC(F)(F)C4)nc3cc2Cl)n(Cc2cc(F)c(F)c(F)c2)c1=O [Compound I-0470],1000 to 10000,< 100,,
CC(=O)NCCn1cc2cc(Nc3nc(=O)n(-c4cncc5ccccc45)c(=O)n3Cc3cc(F)c(F)c(F)c3)c(Cl)cc2n1 [Compound I-0471],1000 to 10000,< 100,,
O=c1nc(Nc2ccc3nn(CC(F)F)cc3c2)n(Cc2cc(F)c(F)c(F)c2)c(=O)n1-c1cncc2ccccc12 [Compound I-0472],< 1000,< 100,,
COc1ccc(Nc2nc(=O)n(-c3cncc4ccccc34)c(=O)n2Cc2cc(F)c(F)c(C#N)c2)cc1 [Compound I-0480],,,72.6,6.5
N#Cc1cc(Cn2c(Nc3ccc4c(c3)CCO4)nc(=O)n(-c3cncc4ccccc34)c2=O)cc(F)c1F [Compound I-0481],,,43.2,2.7
Cn1cnc(Cn2c(=O)nc(Nc3cc4c(cc3Cl)OCC4)n(Cc3cc(F)c(F)c(F)c3)c2=O)n1 [Compound I-0482],,,385,15
Cn1cnc(Cn2c(=O)nc(Nc3cc4cn(C)nc4cc3Cl)n(Cc3cc(F)c(F)c(F)c3F)c2=O)n1 [Compound I-0483],,,395,9.8
Cc1cncc(-n2c(=O)nc(Nc3ccc4nn(CC(F)(F)F)cc4c3)n(Cc3cc(C#N)ccc3Cl)c2=O)c1 [II-0001],,,466,3.4
CN(C)C(=O)Cn1cc2cc(Nc3nc(=O)n(-c4cncc5ccccc45)c(=O)n3Cc3cc(F)c(F)cc3F)c(Cl)cc2n1 [II-0002],1000 to 10000,< 100,,

SMILES,EC50 (SARS-CoV-2; class symbols) [nM],IC50 (SARS-CoV-2 3CL protease; given as class symbols) [nM],EC50 (SARS-CoV-2; CellTiter-Glo 2.0) [nM],IC50 (SARS-CoV-2 3CL protease; RapidFire MS) [nM]
Cn1cnc(Cn2cc3cc(Nc4nc(=O)n(Cc5ncn(C)n5)c(=O)n4Cc4cc(Cl)c(F)cc4F)c(Cl)cc3n2)n1 [II-0003],,,17800,6
Cn1cnc(Cn2c(=O)nc(Nc3cc4cn(Cc5ccccn5)nc4cc3Cl)n(Cc3cc(Cl)c(F)cc3F)c2=O)n1 [II-0005],1000 to 10000,< 100,,
Cn1cnc(Cn2c(=O)nc(Nc3cc4cn(Cc5ccccn5)nc4cc3Cl)n(Cc3cc(F)c(F)c(Cl)c3)c2=O)n1 [II-0006],1000 to 10000,< 100,,
Cc1cncc(-n2c(=O)nc(Nc3cc4cn(CCN5CCOCC5)nc4cc3Cl)n(Cc3cc(F)c(F)cc3F)c2=O)c1 [II-0007],< 1000,< 100,,
Cn1cc2cc(Nc3nc(=O)n(Cc4cc5ccsc5[nH]c4=O)c(=O)n3Cc3ccc(F)c(C#N)c3)c(Cl)cc2n1 [II-0008],1000 to 10000,< 100,,
CCn1cc2cc(Nc3nc(=O)n(-c4cncc(C)c4)c(=O)n3Cc3ccc(F)c(C#N)c3)ccc2n1 [II-0010],,,940,19
CC(=O)Nc1nc2cc(F)c(Nc3nc(=O)n(-c4cncc(C)c4)c(=O)n3Cc3ccc(F)c(C#N)c3)cc2s1 [II-0011],1000 to 10000,< 100,,
COc1ccc(Nc2nc(=O)n(Cc3cc(N4CCCC4)c[nH]c3=O)c(=O)n2Cc2cc(F)c(F)c(F)c2)cc1 [II-0014],,,22100,2400
Cc1cncc(-n2c(=O)nc(Nc3cc4cn(C)nc4cc3Cl)n(Cc3cc(C#N)c(F)cc3C)c2=O)c1 [II-0015],,,35,1.5
Cn1cnc(Cn2c(=O)nc(Nc3cc4c(cc3Cl)OCC4)n(Cc3cc(F)c(F)c(F)c3F)c2=O)n1 [II-0017],< 1000,< 100,,
Cc1cncc(-n2c(=O)nc(Nc3cc4cn(C)nc4cc3Cl)n(Cc3cc(F)c(F)cc3Cc3cnn(C)c3)c2=O)c1 [II-0018],1000 to 10000,< 100,,
Cc1cncc(-n2c(=O)nc(Nc3cc4cn(C)nc4cc3Cl)n(Cc3ccc(F)c(C#N)c3C)c2=O)c1 [II-0020],1000 to 10000,< 100,,
O=c1[nH]cc(F)cc1Cn1c(=O)nc(Nc2cc3c(cc2Cl)OCC3)n(Cc2cc(F)c(F)cc2F)c1=O [II-0022],< 1000,< 100,,
Cc1cncc(-n2c(=O)nc(Nc3cc4cn(C)nc4cc3Cl)n(Cc3cc(C#N)c(F)cc3CC(C)C)c2=O)c1 [II-0023],< 1000,< 100,,
Cc1cncc(-n2c(=O)nc(Nc3cc4cn(C)nc4cc3Cl)n(Cc3cc(C#N)ccc3CCC(C)(C)O)c2=O)c1 [II-0024],1000 to 10000,< 100,,
Cc1cncc(-n2c(=O)nc(Nc3cc4cn(C)nc4cc3Cl)n(Cc3cc(F)c(F)cc3Cc3cccc(CO)c3)c2=O)c1 [II-0025],8000,< 100,,
Cc1cncc(-n2c(=O)nc(Nc3cc4cn(C)nc4cc3Cl)n(Cc3cc(C#N)ccc3Cc3cccc(F)c3)c2=O)c1 [II-0027],< 1000,< 100,,
Cc1cncc(-n2c(=O)nc(Nc3cc4cn(C)nc4cc3Cl)n(Cc3ccc(F)c(F)c3)c2=O)c1 [II-0028],< 1000,< 100,,
N#Cc1cc(F)cc(Cn2c(Nc3cc4c(cc3Cl)OCC4)nc(=O)n(Cc3ccc[nH]c3=O)c2=O)c1 [II-0029],1000 to 10000,< 100,,
O=c1[nH]c2sccc2cc1Cn1c(=O)nc(Nc2cc3cn(CCO)nc3cc2Cl)n(Cc2cc(F)c(F)c(F)c2)c1=O [II-0031],1000 to 10000,< 100,,
O=c1nc(Nc2cc3cn(CCO)nc3cc2Cl)n(Cc2cc(F)c(F)cc2F)c(=O)n1-c1cncc2ccccc12 [II-0032],< 1000,< 100,,
CCn1cc2cc(Nc3nc(=O)n(-c4cncc(Cl)c4)c(=O)n3Cc3cc(C#N)ccc3C)ccc2n1 [II-0034],,,234,7.3
Cc1cncc(-n2c(=O)nc(Nc3cc4sc(NC(C)C)nc4cc3Cl)n(Cc3ccc(F)c(C#N)c3)c2=O)c1 [II-0035],< 1000,< 100,,
CCn1cc2cc(Nc3nc(=O)n(-c4cncc(Cl)c4)c(=O)n3Cc3cc(C#N)ccc3Cl)ccc2n1 [II-0036],,,355,8.3
CC(C)Nc1nc2cc(Cl)c(Nc3nc(=O)n(Cc4ncn(C)n4)c(=O)n3Cc3cc(F)c(F)cc3F)cc2s1 [II-0037],1000 to 10000,< 100,,
Cc1cncc(-n2c(=O)nc(Nc3ccc4nn(C(C)C)cc4c3)n(Cc3ccc(F)c(C#N)c3)c2=O)c1 [II-0038],1000 to 10000,< 100,,
Cn1cnc(Cn2c(=O)nc(Nc3cc4cccnc4cc3Cl)n(Cc3cc(F)c(F)cc3F)c2=O)n1 [II-0039],1000 to 10000,< 100,,
